# Test results: patent US12331041B2, “GLP-1 receptor agonists and uses thereof” (Pfizer Inc., priority 2018, dated 2025)
# Counter-ions that a name gives are not always drawn.
# Legend:
# human GLP-1R [1] = target: T1, human GLP-1R (Homo sapiens, UniProt P43220, G168S); experiment: CHO GLP-1R Clone H6 - Assay 1 (HTRF cAMP agonist assay); assay type: cell-based; conditions: for EC50: CHO Clone H6, high GLP-1R density, cAMP, geometric mean; for Emax / Assay 1 Emax (%): CHO Clone H6, relative to saturating full agonist GLP-1 7-36 (1 μM), arithmetic mean
# T1 construct: expressed in transfected cells
# T1 sequence (P43220 24-463 G168S): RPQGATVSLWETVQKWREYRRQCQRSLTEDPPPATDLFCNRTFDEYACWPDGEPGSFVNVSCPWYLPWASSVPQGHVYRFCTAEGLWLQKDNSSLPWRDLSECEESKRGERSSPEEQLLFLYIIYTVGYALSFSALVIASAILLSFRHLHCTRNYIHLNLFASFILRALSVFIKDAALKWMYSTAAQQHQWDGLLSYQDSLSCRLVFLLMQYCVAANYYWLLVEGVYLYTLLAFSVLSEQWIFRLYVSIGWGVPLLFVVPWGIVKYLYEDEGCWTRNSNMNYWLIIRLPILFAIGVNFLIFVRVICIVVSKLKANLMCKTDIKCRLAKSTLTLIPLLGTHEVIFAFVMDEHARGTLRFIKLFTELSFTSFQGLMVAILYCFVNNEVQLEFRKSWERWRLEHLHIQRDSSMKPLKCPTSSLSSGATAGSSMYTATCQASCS
# Procedure: GLP-1R-mediated agonist activity was determined with a cell-based functional assay utilizing an HTRF (Homogeneous Time-Resolved Fluorescence) cAMP detection kit (cAMP HI Range Assay Kit; CisBio cat #62AM6PEJ) that measures cAMP levels in the cell. The method is a competitive immunoassay between native cAMP produced by the cells and exogenous cAMP labeled with the dye d2, The tracer binding is visualized by a mAb anti-cAMP labeled with Cryptate. The specific signal (i.e. energy transfer) is inversely proportional to the concentration of cAMP in either standard or experimental sample.
# The human GLP-1R coding sequence (NCBI Reference Sequence NP_002053.3, including naturally-occurring variant Gly168Ser) was subcloned into pcDNA3 (Invitrogen) and a cell line stably expressing the receptor was isolated (designated Clone H6).
# (§1) A 1 mL sample of the cell suspension in growth media was counted on a Becton Dickinson ViCell to determine cell viability and cell count per mL. The remaining cell suspension was then adjusted with growth media to deliver 2000 viable cells per well using a Matrix Combi Multidrop reagent dispenser, and the cells were dispensed into a white 384 well tissue culture treated assay plate (Corning 3570). The assay plate was then incubated for 48 hours at 37° C. in a humidified environment in 5% carbon dioxide.
# Varying concentrations of each compound to be tested (in DMSO) were diluted in assay buffer (HBSS with Calcium/Magnesium (Lonza/BioWhittaker cat #10-527F)/0.1% BSA (Sigma Aldrich cat #A7409-1L)/20 mM HEPES (Lonza/BioWhittaker cat #17-737E) containing 100 μM 3-isobutyl-1-methylxanthin (IBMX; Sigma cat #15879). The final DMSO concentration is 1%.
# After 48 hours, the growth media was removed from the assay plate wells, and the cells were treated with 20 μL of the serially diluted compound in assay buffer for 30 minutes at 37° C. in a humidified environment in 5% carbon dioxide. Following the 30 minute incubation, 10 μL of labeled d2 cAMP and 10 μL of anti-cAMP antibody (both diluted 1:20 in cell lysis buffer; as described in the manufacturer's assay protocol) were added to each well of the assay plate. The plates were then incubated at room temperature and after 60 minutes, changes in the HTRF signal were read with an Envision 2104 multi-label plate reader using excitation of 330 nm and emissions of 615 and 665 nm. Raw data were converted to nM cAMP by interpolation from a cAMP standard curve (as described in the manufacturer's assay protocol) and the percent effect was determined relative to a saturating concentration of the full agonist GLP-17-36 (1 μM) included on each plate. EC50 determinations were made from agonist dose-response curves analyzed with a curve fitting program using a 4-parameter logistic dose response equation.
# human GLP-1R [2] = target: T2, human GLP-1R (Homo sapiens, UniProt P43220, L260F); experiment: CHO GLP-1R Clone C6 - Assay 2 (HTRF cAMP agonist assay); assay type: cell-based; conditions: for EC50: CHO clone C6, low GLP-1R density, cAMP, geometric mean; for Emax / Assay 2 Emax (%): CHO clone C6, relative to saturating full agonist GLP-1 (1 μM), arithmetic mean
# T2 construct: expressed in transfected cells; host or cells: CHO Flp-In T-REx, clonal line C6 (pcDNA5-FRT-TO)
# T2 sequence (P43220 24-463 L260F): as the sequence (P43220 24-463 G168S) above, with S145G, L237F counted along it
# Procedure: GLP-1R-mediated agonist activity was determined with a cell-based functional assay utilizing an HTRF (Homogeneous Time-Resolved Fluorescence) cAMP detection kit (cAMP HI Range Assay Kit; Cis Bio cat #62AM6PEJ) that measures cAMP levels in the cell. The method is a competitive immunoassay between native cAMP produced by the cells and exogenous cAMP labeled with the dye d2. The tracer binding is visualized by a mAb anti-cAMP labeled with Cryptate. The specific signal (i.e. energy transfer) is inversely proportional to the concentration of cAMP in either a standard or an experimental sample.
# The human GLP-1R coding sequence (NCBI Reference Sequence NP_002053.3, including naturally-occurring variant Leu260Phe) was subcloned into pcDNA5-FRT-TO and a clonal CHO cell line stably expressing a low receptor density was isolated using the Flp-In™ T-Rex™ System, as described by the manufacturer (ThermoFisher).
# as §1, with “deliver 1600” for “deliver 2000”, “48 h” for “48 hours”, “environment (95% O2,” for “environment in”, “5% CO2)” for “5% carbon dioxide.”
# Varying concentrations of each compound to be tested (in DMSO) were diluted in assay buffer [HBSS with Calcium/Magnesium (Lonza/BioWhittaker cat #10-527F)/0.1% BSA (Sigma Aldrich cat #A7409-1L)/20 mM HEPES (Lonza/BioWhittaker cat #17-737E)] containing 100 μM 3-isobutyl-1-methylxanthin (IBMX; Sigma cat #15879). The final DMSO concentration in the compound/assay buffer mixture is 1%.
# After 48 h, the growth media was removed from the assay plate wells, and the cells were treated with 20 μL of the serially diluted compound in assay buffer for 30 min at 37° C. in a humidified environment (95% O2, 5% CO2). Following the 30 min incubation, 10 μL of labeled d2 cAMP and 10 μL of anti-cAMP antibody (both diluted 1:20 in cell lysis buffer; as described in the manufacturer's assay protocol) were added to each well of the assay plate. The plates were then incubated at room temperature and after 60 minutes, changes in the HTRF signal were read with an Envision 2104 multi-label plate reader using excitation of 330 nm and emissions of 615 and 665 nm. Raw data were converted to nM cAMP by interpolation from a cAMP standard curve (as described in the manufacturer's assay protocol) and the percent effect was determined relative to a saturating concentration of the full agonist GLP-1 (1 μM) included on each plate. EC50 determinations were made from agonist dose response curves analyzed with a curve fitting program using a 4-parameter logistic dose response equation.
compound,measurement,setting,value
"N#Cc1ccc(COc2nc(N3CCC4(CC3)CC4c3nc4ccc(C(=O)O)cc4n3C[C@@H]3CCO3)c(F)cc2F)c(F)c1 (mixture of isomers) [Example 56, Ammonium 2-(6-{6-[(4-cyano-2-fluorobenzyl)oxy]-3,5-difluoropyridin-2-yl}-6-azaspiro[2.5]oct-1-yl)-1-[(2S)-oxetan-2-ylmethyl]-1H-benzimidazole-6-carboxylate]",EC50,human GLP-1R [1],0.38 nM
same,Emax,human GLP-1R [1],80%
same,EC50,human GLP-1R [2],4.2 nM
same,Emax,human GLP-1R [2],90%
"N#Cc1ccc(COc2cccc(N3CCC4(CC3)CC4c3nc4ccc(C(=O)O)cc4n3CC3CCO3)n2)c(F)c1 (single isomer, unassigned) [Example 35]",EC50,human GLP-1R [1],330 nM
same,Emax,human GLP-1R [1],85%
same,EC50,human GLP-1R [2],13000 nM
same,Emax,human GLP-1R [2],100%
"N#Cc1ccc(COc2cccc(N3CCC4(CC3)CC4c3nc4ccc(C(=O)O)cc4n3CC3CCO3)n2)c(F)c1 (single isomer, unassigned) [Example 36]",EC50,human GLP-1R [1],0.48 nM
same,Assay 1 Emax (%),human GLP-1R [1],83%
same,EC50,human GLP-1R [2],15 nM
same,Assay 2 Emax (%),human GLP-1R [2],90%
"O=C(O)c1ccc2nc(C3CC34CCN(c3nc(OCc5ccc(Cl)cc5F)ncc3F)CC4)n(CCn3cncn3)c2c1 (single isomer, unassigned) [Example 41, 2-(6-{2-[(4-chloro-2-fluorobenzyl)oxy]-5-fluoropyrimidin-4-yl}-6-azaspiro[2.5]oct-1-yl)-1-[2-(1H-1,2,4-triazol-1-yl)ethyl]-1H-benzimidazole-6-carboxylic acid, trifluoroacetate salt, from P7]",EC50,human GLP-1R [1],7.6 nM
same,Emax,human GLP-1R [1],84%
same,EC50,human GLP-1R [2],130 nM
same,Emax,human GLP-1R [2],96%
"COCCn1c(C2CC23CCN(c2cccc(OCc4ccc(Cl)cc4F)n2)CC3)nc2ncc(C(=O)O)cc21 (single isomer, unassigned) [Example 49, 2-(6-{6-[(4-chloro-2-fluorobenzyl)oxy]pyridin-2-yl}-6-azaspiro[2.5]oct-1-yl)-1-(2-methoxyethyl)-1H-imidazo[4,5-b]pyridine-6-carboxylic acid, ENT-2]",EC50,human GLP-1R [1],18 nM
same,Assay 1 Emax (%),human GLP-1R [1],75%
same,EC50,human GLP-1R [2],290 nM
same,Emax,human GLP-1R [2],87%
"O=C(O)c1ccc2nc(C3CC34CCN(c3ncc(F)c(OCc5ccc(Cl)cc5F)n3)CC4)n(CC3CCO3)c2c1 (single isomer, unassigned) [Example 50]",EC50,human GLP-1R [1],0.71 nM
same,Emax,human GLP-1R [1],78%
same,EC50,human GLP-1R [2],19 nM
same,Emax,human GLP-1R [2],80%
"O=C(O)c1ccc2nc(C3CC34CCN(c3ncc(F)c(OCc5ccc(Cl)cc5F)n3)CC4)n(CC3CCO3)c2c1 (single isomer, unassigned) [Example 51]",EC50,human GLP-1R [1],470 nM
same,Assay 1 Emax (%),human GLP-1R [1],71%
same,EC50,human GLP-1R [2],> 20000 nM
"N#Cc1ccc(COc2ccc(F)c(N3CCC4(CC3)CC4c3nc4ccc(C(=O)O)cc4n3CC3CCO3)n2)c(F)c1 (single isomer, unassigned) [Example 54]",EC50,human GLP-1R [1],63 nM
same,Emax,human GLP-1R [1],76%
same,EC50,human GLP-1R [2],3400 nM
same,Emax,human GLP-1R [2],93%
"N#Cc1ccc(COc2ccc(F)c(N3CCC4(CC3)CC4c3nc4ccc(C(=O)O)cc4n3CC3CCO3)n2)c(F)c1 (single isomer, unassigned) [Example 55]",EC50,human GLP-1R [1],0.33 nM
same,Assay 1 Emax (%),human GLP-1R [1],83%
same,EC50,human GLP-1R [2],5.8 nM
same,Assay 2 Emax (%),human GLP-1R [2],82%
"N#Cc1ccc(COc2nc(N3CCC4(CC3)CC4c3nc4ccc(C(=O)O)cc4n3CC3CCO3)ccc2F)c(F)c1 (single isomer, unassigned; ent-1) [Example 52]",EC50,human GLP-1R [1],100 nM
same,Emax,human GLP-1R [1],74%
same,EC50,human GLP-1R [2],6400 nM
same,Emax,human GLP-1R [2],100%
"N#Cc1ccc(COc2nc(N3CCC4(CC3)CC4c3nc4ccc(C(=O)O)cc4n3CC3CCO3)c(F)cc2F)c(F)c1 (single isomer, unassigned; ent-1) [Example 57]",EC50,human GLP-1R [1],0.3 nM
same,Emax,human GLP-1R [1],88%
same,EC50,human GLP-1R [2],4.1 nM
same,Emax,human GLP-1R [2],98%
"COCCn1c(C2CC23CCN(c2ccnc(OCc4ccc(Cl)cc4F)n2)CC3)nc2ccc(C(=O)O)cc21 (single isomer, unassigned; ent-2) [Example 47, Ammonium 2-(6-{2-[(4-chloro-2-fluorobenzyl)oxy]pyrimidin-4-yl}-6-azaspiro[2.5]oct-1-yl)-1-(2-methoxyethyl)-1H-benzimidazole-6-carboxylate, ENT-2]",EC50,human GLP-1R [1],86 nM
same,Assay 1 Emax (%),human GLP-1R [1],92%
same,EC50,human GLP-1R [2],1700 nM
same,Emax,human GLP-1R [2],100%
"N#Cc1ccc(COc2nc(N3CCC4(CC3)CC4c3nc4ccc(C(=O)O)cc4n3CC3CCO3)ccc2F)c(F)c1 (single isomer, unassigned; ent-2) [Example 53]",EC50,human GLP-1R [1],0.57 nM
same,Assay 1 Emax (%),human GLP-1R [1],83%
same,EC50,human GLP-1R [2],14 nM
same,Assay 2 Emax (%),human GLP-1R [2],90%
"O=C(O)c1ccc2nc(CC3CCC(c4cccc(OCc5ccc(Cl)cc5F)n4)CC3)n(C[C@@H]3CCO3)c2c1 (single isomer, unassigned; isomer 1) [Example 79]",EC50,human GLP-1R [1],> 12000 nM
same,EC50,human GLP-1R [2],> 20000 nM
"O=C(O)c1ccc2nc(CC3CCC(c4cccc(OCc5ccc(Cl)cc5F)n4)CC3)n(C[C@@H]3CCO3)c2c1 (single isomer, unassigned; isomer 2) [Example 80]",EC50,human GLP-1R [1],12 nM
same,Emax,human GLP-1R [1],98%
same,EC50,human GLP-1R [2],160 nM
same,Emax,human GLP-1R [2],100%
"O=C(O)c1ccc2nc(CN3CCC(c4cccnc4OCc4ccc(Cl)cc4F)CC3)n(C[C@@H]3CCO3)c2c1 [Example 1, Ammonium 2-[(4-{2-[(4-chloro-2-fluorobenzyl)oxy]pyridin-3-yl}piperidin-1-yl)methyl]-1-[(2S)-oxetan-2-ylmethyl]-1H-benzimidazole-6-carboxylate]",EC50,human GLP-1R [1],1 nM
same,Emax,human GLP-1R [1],84%
same,EC50,human GLP-1R [2],20 nM
same,Emax,human GLP-1R [2],95%
"CCn1cncc1Cn1c(CN2CCC(c3ccnc(OCc4ccc(Cl)cc4F)n3)CC2)nc2ccc(C(=O)O)cc21 [Example 63, 2-[(4-{2-[(4-chloro-2-fluorobenzyl)oxy]pyrimidin-4-yl}piperidin-1-yl)methyl]-1-[(1-ethyl-1H-imidazol-5-yl)methyl]-1H-benzimidazole-6-carboxylic acid]",EC50,human GLP-1R [2],10 nM
same,Emax,human GLP-1R [2],97%
